Source: patent publication US7947688B2, “N-[3-(3-substituted-pyrazolo[1,5-a]pyrimidin-7-yl)phenyl]-sulfonamides, and compositions, and methods related thereto” (Ferrer Internacional, S.A., priority 2003, dated 2011)

Key:
[1] = tested on: male CD1 mice; assay: Predictive sedation-hypnosis test in mice (motor activity, crossings); format: in vivo; conditions: single equimolecular intraperitoneal dose, crossings over 30 min after dosing (first 5 min discarded) versus control
Experimental: • In vivo determination of predictive sedative-hypnotic action.
The in vivo effects of these compounds were assessed by a predictive sedation-hypnosis test in mice (D. J. Sanger et al., Eur. J. Pharmacol., 313, 35-42, 1996; and G. Griebel et al., Psychopharmacology, 146, 205-213, 1999). Groups of 5-8 male CD1 mice, weighing 22-26 g at the time of test, were used. The test compounds were administered in single equimolecular intraperitoneal doses, suspended in 0.25% agar with one drop of Tween in a volume of 10 ml/kg. Control animals received the vehicle alone. Using an Actisystem DAS16 (Panlab, S. L., Spain) the crossings (number of counts) were recorded for each mouse at 5-min intervals during a period of 30 minutes after dosing. The inhibition percentage of crossings of treated animals versus control animals (the first 5 min were discarded) was calculated.

In the case of `CN(c1cccc(-c2ccnc3c(C(=O)c4cccs4)cnn23)c1)S(C)(=O)=O` [Example 3, N-methyl-N-{3-[3-(thiophene-2-carbonyl)-pyrazolo[1,5-a]pyrimidin-7-yl]-phenyl}-methanesulfonamide], the melting point is reported as 169 to 170 °C and the “% Motor Activity Inhibition” value [1] is reported as 93.58%.
